According to patent publication US20030198617A1, “Pharmaceutical tryptophan containing dipeptide compositions and methods of use thereof” (priority 1993, published 2003):
Marks after values point to notes of the source that are not given here.

Legend:
[1] = test system: skin grafts; assay: Skin allograft survival in mice; assay type: in vivo
[2] = test system: Mycobacterium tuberculosis
[3] = Chronic pyoderma (staphylococcal skin diseases), clinical and immunological testing
Description: IM862 was used in the form of a 0.01% solution (100 μg of the preparation in one IV tube). The preparation was administered intranasally, daily, at 100 μg for a course of 5 days.
The effectiveness of IM862 use was evaluated according to the subjective impression of the patient, clinical findings, body temperature, general clinical and immunological testing of the peripheral blood. Also, bacteriological investigation of the disease agents were conducted before and after treatment with IM862.
IM862 was administered to 59 chronic pyoderma patients. […] The patients ranged in age from 18 to 56 years old. Thirty-two men and 27 women were studied. Duration of illness was from 5 months to 16 years.
For determining the norm of T- and B-system immunity and non-specific resistance, 175 healthy donors (men & women), aged 18 to 50 years, were examined. Lymphocytes were extracted from the heparinized (25 U/ml) peripheral blood of healthy and ill persons in a ficoll-urotrast density gradient. T-lymphocytes were identified by spontaneous rosette-formation with ram erythrocytes. The T-lymphocyte subpopulations were determined with the aid of mouse monoclonal antibodies, OKT4 and OKT8, as well as with the aid of a theophylline resistance test. B-lymphocytes were determined by rosette-formation with mouse erythrocytes. The B-lymphocyte subpopulations were determined according to the presence of various classes of immunoglobulins (Ig+, IgM^+, IgG^+, IgA^+) on their surfaces with the aid of monospecific antibodies. In serum, the content of the immunoglobulins M, G, & A, and the C3-component of complement was determined by using monospecific sera to human immunoglobulins with the radial immunodiffusion method. The percentage of migration inhibition in a LMIR with PHA and ConA was determined using the hemolytic staphylococcus allergen (HSA). The phagocytic activity of the neutrophils (percent and absolute quantity of phagocytic polymorphonuclear leukocytes) and the phagocytic index (mean quantity of microorganisms absorbed by a single phagocyte) were studied with the use of a museum culture of the “Oxford 209P” strain. Other analyzed parameters were the cationic protein content (MCC) in the neutrophils, the serum immune complexes (CIC), the natural killer activity (CI) by the 3H-uridine test, and the quantity of neutrophils forming rosettes with sheep erythrocytes.

[4] = following two months of treatment, with chemotherapy
[5] = Abscessing and indurative comedones
[6] = after IM862, phagocytosis with staph. cells
[7] = after treatment with IM862 (Table 21)

Substance: Glu-Trp [IM862]
- GRAFT REJECTION TIME ([1]; mice, daily for 5 treatments prior to grafting, IM862 0.01 mg/kg, Thymalin 1.0 mg/kg): 8.3 ± 0.4 days
- graft survival ([1]; vs animals not receiving Glu-Trp): prolonged survival
- effect on immunological indices ([2]; after 2 months of observation): normalizing effect
- positive changes in the lungs, cases out of 37 ([2]; after 4-6 months of in-hospital treatment): 35 cases
- improvement, number of patients [2, 4]: 27
- significant improvement, number of patients [2, 4]: 9
- Considerable Improvement, number of patients [3, 5]: 1
- Recovery, number of patients [3, 5]: 4
- improvement, number of patients [3, 5]: 1
- Considerable Improvement, number of patients ([3]; Chronic abscessing pyoderma): 2
- Recovery, number of patients ([3]; Chronic abscessing pyoderma): 5
- Recovery, number of patients ([3]; Chronic furunculosis): 10
- Recovery, number of patients ([3]; Chronic recurring folliculitis-deep): 1
- Recovery, number of patients ([3]; Chronic recurring osteofolliculitis): 3
- Considerable Improvement, number of patients ([3]; Chronic ulcerative pyoderma): 2
- Considerable Improvement, number of patients ([3]; Papulous-pustulous comedones): 3
- Recovery, number of patients ([3]; Papulous-pustulous comedones): 4
- Considerable Improvement, number of patients ([3]; Total number of patients): 8
- improvement, number of patients ([3]; Total number of patients): 1
- Recovery, number of patients ([3]; Total number of patients (36 resistant to standard therapy)): 27
- CIC units ([3]; after IM862): 45.9 ± 4.9 units
- Cathion proteins MCC × 10^9/l ([3]; after IM862): 1.46 ± 0.05^y
- Etr-RFC/Ets-RFC ([3]; after IM862): 5.32 ± 1.00
- LMIF with ConA % ([3]; after IM862): 58.3 ± 3.9^yy %
- LMIF with HSA % ([3]; after IM862): 84.9 ± 5.5^yy %
- LMIF with PHA % ([3]; after IM862): 40.2 ± 3.9^y %
- Lymphocytes % ([3]; after IM862): 30.8 ± 1.4%
- Lymphocytes ×10^9/l ([3]; after IM862): 2.41 ± 0.14 ×10^9/l
- Monocytes × 10^9/l ([3]; after IM862): 0.43 ± 0.04 × 10^9/l
- NK-activity (CI) % ([3]; after IM862): 45.18 ± 2.55^y %
- Neutrophils En-RFC % ([3]; after IM862): 14.7 ± 1.6%
- Neutrophils En-RFC × 10^9/l ([3]; after IM862): 0.7 ± 0.11 × 10^9/l
- Neutrophils × 10^9/l ([3]; after IM862): 4.54 ± 0.25 × 10^9/l
- Phagocytic index % × 10^9/l ([3]; after IM862): 5.31 ± 0.20^y
- T4/T8 ([3]; after IM862): 1.32 ± 011^y^
- T-helpers Etr-RFC % ([3]; after IM862): 51.7 ± 2.8^y %
- T-helpers Etr-RFC ×10^9/l ([3]; after IM862): 1.28 ± 0.09^y ×10^9/l
- T-helpers OKT4^+ % ([3]; after IM862): 20.3 ± 2.9%
- T-helpers OKT4^+ ×10^9/l ([3]; after IM862): 0.46 ± 0.05^y ×10^9/l
- T-lymphocytes E-RFC % ([3]; after IM862): 69.3 ± 1.9^y %
- T-lymphocytes E-RFC ×10^9/l ([3]; after IM862): 1.68 ± 0.12^y ×10^9/l
- T-suppressors Etr-RFC % ([3]; after IM862): 17.9 ± 2.4%
- T-suppressors Etr-RFC ×10^9/l ([3]; after IM862): 0.45 ± 0.08 ×10^9/l
- T-suppressors OKT8 % ([3]; after IM862): 17.1 ± 1.9%
- T-suppressors OKT8 ×10^9/l ([3]; after IM862): 0.39 ± 0.04 ×10^9/l
- Leukocytes ×10^9/l ([3]; after IM862 (Table 22)): 7.75 ± 0.33 ×10^9/l
- Monocytes % ([3]; after IM862 (Table 24)): 5.65 ± 0.40%
- Neutrophils % ([3]; after IM862 (Table 24)): 59.8 ± 1.6%
- Phagocytic activity* % [3, 6]: 48.9 ± 2.8%
- Phagocytic activity* × 10^9/l [3, 6]: 2.36 ± 0.27 × 10^9/l
- B-lymphocytes (IgA^+) % ([3]; after treatment with IM862): 2.4 ± 0.3%
- B-lymphocytes (IgA^+) ×10^9/l ([3]; after treatment with IM862): 0.06 ± 0.008 ×10^9/l
- B-lymphocytes (IgG^+) % ([3]; after treatment with IM862): 14.7 ± 2.16%
- B-lymphocytes (IgG^+) ×10^9/l ([3]; after treatment with IM862): 0.19 ± 0.023^y ×10^9/l
- B-lymphocytes (IgM^+) % ([3]; after treatment with IM862): 4.4 ± 0.6%
- B-lymphocytes (IgM^+) ×10^9/l ([3]; after treatment with IM862): 0.10 ± 0.01 ×10^9/l
- B-lymphocytes (Ig^+) % ([3]; after treatment with IM862): 16.9 ± 1.7%
- B-lymphocytes (Ig^+) ×10^9/l ([3]; after treatment with IM862): 0.34 ± 0.05 ×10^9/l
- B-lymphocytes Em-RFC % ([3]; after treatment with IM862): 12.1 ± 1.5%
- B-lymphocytes Em-RFC ×10^9/l ([3]; after treatment with IM862): 0.28 ± 0.04 ×10^9/l
- Bacilli/nuclei % ([3]; after treatment with IM862): 3.8 ± 0.6%
- Basophils % ([3]; after treatment with IM862): 0.1 ± 0.1%
- Body temperature (morning) ([3]; after treatment with IM862): 36.2 ± 0.1
- ESP, mm/hr ([3]; after treatment with IM862): 11.2 ± 1.4 mm/hr
- Erythrocytes ×10^12/l ([3]; after treatment with IM862): 5.2 ± 0.6 ×10^12/l
- IgA ([3]; after treatment with IM862): 2.40 ± 0.18 g/L
- IgG ([3]; after treatment with IM862): 15.5 ± 0.73 g/L
- IgM ([3]; after treatment with IM862): 1.25 ± 0.12 g/L
- Segm./nuclei % ([3]; after treatment with IM862): 61.9 ± 1.4%
- Leukocytes ×10^9/l [3, 7]: 7.75 ± 0.36 ×10^9/l
- Monocytes % [3, 7]: 5.7 ± 0.4%
- Neutrophils % [3, 7]: 59.8 ± 1.6%
- side effects / tolerance ([3]; intranasally 100 μg daily, 5 days): No side effects from its use were noted in any of the patients
- relapses, number of patients ([3]; observation for 6 months after discharge): 3 patients
